These results are taken from US20250297152A1, “FLUORINATED SUBSTITUTED OLEFIN REFRIGERANTS AND METHODS OF COOLING ELECTRONICS” (Honeywell International Inc., priority 2024, published 2025).

Molecules are shown by their SMILES.

Data set [1] is classed as physicochemical. To be noted: for BP: Table E1. As for the experimental part:
(§1) The boiling point (“BP”) and dielectric constant (“Dk”) of trans- and cis-secBuFO and trans- and cis-tBuFO were determined and the results are reported below in Table E1. The dielectric property of each of trans- and cis-secBuFO and trans- and cis-tBuFO was determined using the Agilent 85070 Dielectric Probe. All measurements were made at ambient pressure and room temperature (approximately 23° C.). Prior to making measurements, the system was calibrated from 1 GHz to 20 GHz with an open circuit, a short circuit, and DI water (@22.4° C.) standard. The result of the calibration is shown in the Table E1 below for DI H2O, and is consistent with DI water at 22.4° C. The accuracy of the probe is given as: Dielectric constant, er′=er′+/−0.05|er*| with er″=er″+/−0.05|er*| and (loss=er″/er′).

The nature of data set [2]: Dielectric constant (Agilent 85070 Dielectric Probe; ASTM D150-11). Format: physicochemical. The settings on record: for Dielectric Constant (20 GHz): Table 3, values understood as 'about'; for Calculated Dk at 20 GHz: Table E1, ambient pressure, room temperature (approximately 23° C.). How it is done: “Dielectric Constant” means the dielectric constant as measured in accordance with ASTM D150-11 at room temperature at 20 giga hertz (GHz).
as §1

Data set [3] in a line: Toxicological screening study: in vivo acute oral toxicity and 4-hour acute inhalation toxicity. The settings on record: acute oral 2,000 mg/kg/day; 4-hour acute inhalation at 18,375 ppm. How it is done: “Acceptable toxicity” means a fluid that has toxicity within acceptable limits. This is experimentally determined by a toxicological screening study to assess in vivo acute oral toxicity at a dosage of 2,000 mg/kg/day and 4-hour acute inhalation toxicity at a concentration of about 20,000 ppm.
A fluid including the trans isomer of the SecBuFO refrigerant was subjected experimentally a toxicological screening study to assess in vivo acute oral toxicity at a dosage of 2,000 mg/kg/day and 4-hour acute inhalation toxicity at a concentration of 18,375 ppm.

With `F/C=C\C(F)(C(F)(F)F)C(F)(F)C(F)(F)F` (stereo not drawn) [cis-secBuFO, cis-1,3,4,4,5,5,5-heptafluoro-3-(trifluoromethyl)pent-1-ene], in data set [1], the Boiling point amounted to 79.27 °C and the BP worked out at 79.27 °C. In addition, in data set [2], the “Dielectric Constant (20 GHz)” value is on record as 6.48 and the “Calculated Dk at 20 GHz” value was 6.48.

For the compound `F/C=C\C(C(F)(F)F)(C(F)(F)F)C(F)(F)F` [cis-tBuFO, cis-1,4,4,4-tetrafluoro-3,3-bis(trifluoromethyl)but-1-ene], in data set [1], the Boiling point was found to be 76.19 °C and the BP turned out to be 76.19 °C. In data set [2], the “Dielectric Constant (20 GHz)” value stood at 6.51 and the “Calculated Dk at 20 GHz” value is 6.51.

As to `F/C=C/C(F)(C(F)(F)F)C(F)(F)C(F)(F)F` (stereo not drawn) [trans-secBuFO, trans-1,3,4,4,5,5,5-heptafluoro-3-(trifluoromethyl)pent-1-ene], in data set [1], the Boiling point was 55.5-55.9 °C and the BP was 55.5-55.9 °C. In data set [2], the “Dielectric Constant (20 GHz)” value is 2.11 and the “Calculated Dk at 20 GHz” value is on record as 2.11. In addition, the “toxicology screening study outcome” value in data set [3] is reported as “passed”.

In data set [1], `F/C=C/C(C(F)(F)F)(C(F)(F)F)C(F)(F)F` [trans-tBuFO, trans-1,4,4,4-tetrafluoro-3,3-bis(trifluoromethyl)but-1-ene] gave a Boiling point of 57.9 °C and a BP of 57.9 °C. Moreover, in data set [2], the “Dielectric Constant (20 GHz)” value amounted to 2.15 and the “Calculated Dk at 20 GHz” value is on record as 2.15.
